According to patent publication US6589963B2, “Heterocyclic compounds and salts thereof and medicinal use of the same” (Kyoto Pharmaceutical Industries, Ltd., priority 1999, dated 2003):

Columns and labels:
[1] = tested on: male KK-A^y mice; assay: Hypoglycemic action (method A); format: in vivo, mouse; details: 4 consecutive days, non-fasting, about 24 hours after final administration, vs control group
Method: (§1) The glucose level in the plasma was measured using a commercially available assay kit (glucose CII-test WAKO, Wako Pure Chemical Industries, Ltd.). The mice were grouped (5 mice per group) into a control group and an administration group, such that the mean and the standard deviation of the glucose level in the plasma of each group were nearly the same. Each test compound was suspended or dissolved in 5% gum arabic solution and administered orally to the administration group for 4 consecutive days from the next day. The 5% gum arabic solution was orally administered to the control group. Blood was drawn from the tail vein under a non-fasting state about 24 hours after the final administration and the glucose level in the plasma was measured. The decrease in the plasma glucose level was calculated from the following formula.
Decrease (%) in plasma glucose level=[(mean plasma glucose level of control group−mean plasma glucose level of test compound administration group)/mean plasma glucose level of control group]×100

[2] = tested on: male KK-A^y mice; assay: Hypotriglyceridemic action; format: in vivo, mouse; details: 4 consecutive days, non-fasting, about 24 hours after final administration, vs control group
Method: as §1, with “triglyceride” for “glucose”, “(triglyceride G-test” for “(glucose CII-test”
Decrease (%) in plasma triglyceride level=[(mean plasma triglyceride level of control group−mean plasma triglyceride level of test compound administration group)/mean plasma triglyceride level of control group]×100

[3] = tested on: 3T3-L1 cells; assay: Triglyceride accumulation promoting action in 3T3-L1 cells; format: cell-based; details: 10^−7 M test compound with 10 ng/ml insulin, 4 days; relative to control
Method: A culture medium of 80% confluent 3T3-L1 cells was removed and the cells were dissociated with 0.25% trypsin-EDTA solution. 5% FBS-DMEM (the same amount as the removed medium) was added and the obtained cell suspension was centrifuged at 25° C., 100×g for 1 min to give cell sediment and the supernatant was removed. The cells were re-suspended in a suitable amount of 5% FBS-DMEM medium and the cells were counted. 5% FBS-DMEM medium was added to adjust the concentration to 1×10^5 cells/ml and the mixture was dispensed by 1 ml to a 24 well plate. The cells were cultured with aeration of 5% CO2 at 37° C. for 2 days. Upon confirmation of a post-confluent state, the culture supernatant was changed to a medium containing 0.5 mM-IBMX, and the cells were cultured for 2 days. Then, the medium was changed to a medium containing 10 ng/ml insulin and 10^−7 M test compound and the cells were cultured further for 4 days. After removing the culture supernatant, the cells were lysed in a 0.1% SDS solution and the triglyceride amount was measured. The triglyceride accumulation (%) due to the potentiation of insulin activity by the test compound was calculated from the following formula.
[(triglyceride amount with addition of test compound−triglyceride amount of control)/triglyceride amount of control]×100

[4] = tested on: male KK-A^y mice; assay: Hypoglycemic action and hypoinsulinemic action in insulin resistant diabetic mouse; format: in vivo; details: 10 mg/kg orally once a day for 4 days, 24 hours after final administration, non-fasting; for Plasma glucose: control 507; for Insulin: plasma, control 43
Method: Blood was drawn from the tail vein of 12-week-old male KK-A^y mice under a non-fasting state, and the glucose level in the plasma was measured using a commercially available assay kit (glucose CII-test WAKO, Wako Pure Chemical Industries, Ltd.). The mice were grouped (5 mice per group) into a control group and an administration group, such that the mean glucose level in the plasma and the average body weight of each group, as well as the standard deviation thereof were nearly the same. The test compound (10 mg/kg) was suspended in 5% aqueous gum arabic solution and orally administered once a day to the administration group for 4 days from the next day. The 5% aqueous gum arabic solution was orally administered to the control group. Blood was drawn from the tail vein under a non-fasting state 24 hours after the final administration. The concentrations of plasma glucose and plasma insulin were measured.

CCCCCC(=O)N1Cc2cc(OCCc3nc(-c4ccccc4)oc3C)ccc2C[C@H]1C(=O)O [Example 5, 2-Hexanoyl-7-[2-(5-methyl-2-phenyloxazol-4-yl)ethoxy]-1,2,3,4-tetrahydroisoquinoline-(3S)-carboxylic acid]
Decrease (%) in plasma glucose level ([1]; dose 10 mg/kg orally): 34.1%
Decrease (%) in plasma glucose level ([1]; dose 30 mg/kg orally): 43.4%
Decrease (%) in plasma triglyceride level ([2]; dose 30 mg/kg orally): 30.9%
Triglyceride accumulation (%) [3]: 233.0%

Cc1oc(-c2ccccc2)nc1CCOc1ccc2c(c1)CN(CC1CCCCC1)[C@H](C(=O)O)C2 [Example 8, 2-Cyclohexylmethyl-7-[2-(5-methyl-2-phenyloxazol-4-yl)ethoxy]-1,2,3,4-tetrahydroisoquinoline-(3S)-carboxylic acid]
Triglyceride accumulation (%) [3]: 275.5%

COc1ccc(CN2Cc3cc(OCCc4nc(-c5ccccc5)oc4C)ccc3C[C@H]2C(=O)O)cc1 [Example 16, 2-(4-Methoxybenzyl)-7-[2-(5-methyl-2-phenyloxazol-4-yl)ethoxy]-1,2,3,4-tetrahydroisoquinoline-(3S)-carboxylic acid]
Decrease (%) in plasma glucose level ([1]; dose 30 mg/kg orally): 34.5%
Decrease (%) in plasma triglyceride level ([2]; dose 30 mg/kg orally): 19.8%
Triglyceride accumulation (%) [3]: 288.9%

Cc1oc(-c2ccccc2)nc1CCOc1ccc2c(c1)CN(Cc1ccc(F)cc1)[C@H](C(=O)O)C2 [Example 21, 2-(4-Fluorobenzyl)-7-[2-(5-methyl-2-phenyloxazol-4-yl)ethoxy]-1,2,3,4-tetrahydroisoquinoline-(3S)-carboxylic acid]
Decrease (%) in plasma glucose level ([1]; dose 30 mg/kg orally): 43.4%
Decrease (%) in plasma triglyceride level ([2]; dose 30 mg/kg orally): 24.4%
Triglyceride accumulation (%) [3]: 284.9%

Cc1oc(-c2ccccc2)nc1CCOc1ccc2c(c1)CN(CC(C)(C)C)[C@H](C(=O)O)C2 [Example 23, 2-(2,2-Dimethylpropyl)-7-[2-(5-methyl-2-phenyloxazol-4-yl)ethoxy]-1,2,3,4-tetrahydroisoquinoline-(3S.)-carboxylic acid]
Decrease (%) in plasma glucose level ([1]; dose 10 mg/kg orally): 24.3%
Decrease (%) in plasma glucose level ([1]; dose 30 mg/kg orally): 42.9%
Decrease (%) in plasma triglyceride level ([2]; dose 10 mg/kg orally): 30.4%
Decrease (%) in plasma triglyceride level ([2]; dose 30 mg/kg orally): 50.4%
Plasma glucose [4]: 382 mg/dL
Insulin [4]: 28 ng/mL
Triglyceride accumulation (%) [3]: 214.2%

Cc1oc(C(C)(C)C)nc1CCOc1ccc2c(c1)CN(Cc1ccccc1)[C@H](C(=O)O)C2 [Example 32, 2-Benzyl-7-[2-(5-methyl-2-tert-butyloxazol-4-yl)ethoxy]-1,2,3,4-tetrahydroisoquinoline-(3S)-carboxylic acid]
Decrease (%) in plasma glucose level ([1]; dose 30 mg/kg orally): 36.4%
Decrease (%) in plasma triglyceride level ([2]; dose 30 mg/kg orally): 32.5%
Plasma glucose [4]: 402 mg/dL
Insulin [4]: 30 ng/mL
Triglyceride accumulation (%) [3]: 181.2%

Cc1oc(-c2cccs2)nc1CCOc1ccc2c(c1)CN(Cc1ccccc1)[C@H](C(=O)O)C2 [Example 33, 2-Benzyl-7-[2-(5-methyl-2-(thiophen-2-yl)oxazol-4-yl)ethoxy]-1,2,3,4-tetrahydroisoquinoline-(3S)-carboxylic acid]
Decrease (%) in plasma glucose level ([1]; dose 30 mg/kg orally): 38.8%
Decrease (%) in plasma triglyceride level ([2]; dose 30 mg/kg orally): 42.0%
Triglyceride accumulation (%) [3]: 222.5%

C=CCCc1nc(CCOc2ccc3c(c2)CN(Cc2ccccc2)[C@H](C(=O)O)C3)c(C)o1 [Example 37]
Decrease (%) in plasma glucose level ([1]; dose 30 mg/kg orally): 11.1%
Triglyceride accumulation (%) [3]: 277.3%

C#CCN1Cc2cc(OCCc3nc(-c4ccccc4)oc3C)ccc2C[C@H]1C(=O)O [Example 39, 7-[2-(5-Methyl-2-phenyloxazol-4-yl)ethoxy]-2-(2-propynyl)-1,2,3,4-tetrahydroisoquinoline-(3S)-carboxylic acid]
Decrease (%) in plasma glucose level ([1]; dose 30 mg/kg orally): 30.7%
Decrease (%) in plasma triglyceride level ([2]; dose 30 mg/kg orally): 15.6%
Triglyceride accumulation (%) [3]: 258.0%

CC=CCN1Cc2cc(OCCc3nc(-c4ccccc4)oc3C)ccc2C[C@H]1C(=O)O [Example 40]
Decrease (%) in plasma glucose level ([1]; dose 30 mg/kg orally): 46.3%
Decrease (%) in plasma triglyceride level ([2]; dose 30 mg/kg orally): 36.1%
Triglyceride accumulation (%) [3]: 231.0%

C=CCCN1Cc2cc(OCCc3nc(-c4ccccc4)oc3C)ccc2C[C@H]1C(=O)O [Example 42, 2-(3-Butenyl)-7-[2-(5-methyl-2-phenyloxazol-4-yl)ethoxy]-1,2,3,4-tetrahydroisoquinoline-(3S)-carboxylic acid]
Decrease (%) in plasma glucose level ([1]; dose 10 mg/kg orally): 27.6%
Decrease (%) in plasma glucose level ([1]; dose 30 mg/kg orally): 49.6%
Decrease (%) in plasma triglyceride level ([2]; dose 30 mg/kg orally): 31.6%
Plasma glucose [4]: 308 mg/dL
Insulin [4]: 27 ng/mL
Triglyceride accumulation (%) [3]: 193.6%

CC(C)(CCOc1ccc2c(c1)CN(Cc1ccccc1)[C@H](C(=O)O)C2)c1ccccc1 [Example 49, 2-Benzyl-7-(3-methyl-3-phenylbutoxy)-1,2,3,4-tetrahydroisoquinoline-(3S)-carboxylic acid]
Decrease (%) in plasma glucose level ([1]; dose 30 mg/kg orally): 11.1%
Decrease (%) in plasma triglyceride level ([2]; dose 30 mg/kg orally): 17.0%

CC(C)(CCOc1ccc2c(c1)CN(Cc1ccccc1)[C@H](C(=O)O)C2)Cc1ccccc1 [Example 50, 2-Benzyl-7-(3,3-dimethyl-4-phenylbutoxy)-1,2,3,4-tetrahydroisoquinoline-(3S)-carboxylic acid]
Decrease (%) in plasma glucose level ([1]; dose 30 mg/kg orally): 11.4%
Decrease (%) in plasma triglyceride level ([2]; dose 30 mg/kg orally): 35.7%

CC(C)c1nc2ccc(COc3ccc4c(c3)CN(Cc3ccccc3)[C@H](C(=O)O)C4)cc2o1 [Example 51, 2-Benzyl-7-(2-isopropylbenzoxazol-6-yl)methoxy-1,2,3,4-tetrahydroisoquinoline-(3S)-carboxylic acid]
Decrease (%) in plasma glucose level ([1]; dose 30 mg/kg orally): 20.0%
Decrease (%) in plasma triglyceride level ([2]; dose 30 mg/kg orally): 10.7%

CC(C)(C)c1nc2ccc(COc3ccc4c(c3)CN(Cc3ccccc3)[C@H](C(=O)O)C4)cc2o1 [Example 52, 2-Benzyl-7-(2-tert-butylbenzoxazol-6-yl)methoxy-1,2,3,4-tetrahydroisoquinoline-(3S)-carboxylic acid]
Decrease (%) in plasma glucose level ([1]; dose 30 mg/kg orally): 26.3%
Decrease (%) in plasma triglyceride level ([2]; dose 30 mg/kg orally): 26.6%

COC(=O)[C@@H]1Cc2ccc(OCCc3nc(-c4ccccc4)oc3C)cc2CN1Cc1ccccc1 [Example 58, Methyl 2-benzyl-7-[2-(5-methyl-2-phenyloxazol-4-yl)ethoxy]-1,2,3,4-tetrahydroisoquinoline-(3S)-carboxylate]
Decrease (%) in plasma glucose level ([1]; dose 30 mg/kg orally): 19.1%
Decrease (%) in plasma triglyceride level ([2]; dose 30 mg/kg orally): 24.7%

CCC=Cc1nc(CCOc2ccc3c(c2)CN(Cc2ccccc2)[C@H](C(=O)O)C3)c(C)o1 [Example 62, 2-Benzyl-7-{2-[2-(1-butenyl)-5-methyloxazol-4-yl]ethoxy}-1,2,3,4-tetrahydroisoguinoline-(3S)-carboxylic acid]
Triglyceride accumulation (%) [3]: 327.8%

Cc1oc(-c2ccccc2)nc1CCOc1ccc2c(c1)CN(CC(=O)O)[C@H](C(=O)O)C2 [Example 69, 2-Carboxymethyl-7-[2-(5-methyl-2-phenyloxazol-4-yl)ethoxy]-1,2,3,4-tetrahydroisoquinoline-(3S)-carboxylic acid]
Decrease (%) in plasma glucose level ([1]; dose 30 mg/kg orally): 12.5%
Decrease (%) in plasma triglyceride level ([2]; dose 30 mg/kg orally): 15.2%

CC(=O)c1cccc(CN2Cc3cc(OCCc4nc(-c5ccccc5)oc4C)ccc3C[C@H]2C(=O)O)c1 [Example 73, 2-(3-Acetylbenzyl)-7-[2-(5-methyl-2-phenyloxazol-4-yl)ethoxy]-1,2,3,4-tetrahydroisoquinoline-(3S)-carboxylic acid]
Decrease (%) in plasma glucose level ([1]; dose 30 mg/kg orally): 14.8%
Decrease (%) in plasma triglyceride level ([2]; dose 30 mg/kg orally): 15.4%
